Converted amounts (≈) assume the structure as drawn. Read-outs that look alike come from different tables or passages of the source.
Assays:
Type in all cases: cell-based
[1] = tested on: intestinal cancer cells (HT29 and Caco-2); test: MTT cytotoxicity assay, mean for intestinal cancer cells; conditions: for IC50: mean of HT29 and Caco-2, >512 replaced with 1024, read-out: x¯ -CC ± SD: mean IC50 for intestinal cancer cells; for IC80: read-out: x¯ -CC ± SD: mean IC80 for intestinal cancer cells
[2] = tested on: Caco-2 (ATCC HTB 37) intestinal cancer cells; test: MTT cytotoxicity assay, Caco-2; conditions: Homo sapiens, Caco-2, MTT, 72 h; for IC50: read-out: IC50 ± SD; for IC80: read-out: IC80 ± SD (80% inhibitory concentration of proliferation)
[3] = tested on: Lactobacillus reuteri (CCM 3625); test: Broth microdilution MIC, L. reuteri; conditions: Limosilactobacillus reuteri, CCM3625
[4] = tested on: Clostridium perfringens (DSMZ 11778); test: microbe, parasite or virus in culture; conditions: DSMZ11778
[5] = tested on: Bacteroides fragilis (ATCC 25285); test: Broth microdilution MIC, B. fragilis
[6] = tested on: Yersinia enterocolitica (ATCC 9610); test: Broth microdilution MIC, Y. enterocolitica; conditions: read-out: MIC
[7] = tested on: HT29 (ATCC HTB 38) intestinal cancer cells; test: MTT cytotoxicity assay, HT29; conditions: Homo sapiens, HT-29, HT29, MTT, 72 h; for IC50: read-out: IC50 ± SD; for IC80: read-out: IC80 ± SD (80% inhibitory concentration of proliferation)
[8] = tested on: Shigella flexneri (ATCC 12022); test: microbe, parasite or virus in culture; conditions: ATCC12022
[9] = tested on: Listeria monocytogenes (ATCC 7644); test: Broth microdilution MIC, L. monocytogenes
[10] = tested on: Clostridium difficile (DSMZ 12056); test: microbe, parasite or virus in culture; conditions: Clostridioides difficile, DSMZ12056
[11] = tested on: E. coli 0175:H7 (NCTC 12900); test: microbe, parasite or virus in culture; conditions: Escherichia coli, NCTC12900
[12] = tested on: Bifidobacterium bifidum (ATCC 29521); test: Broth microdilution MIC, B. bifidum
[13] = tested on: Bifidobacterium longum ssp. longum (DSMZ 20219); test: Broth microdilution MIC, B. longum ssp. longum; conditions: DSMZ20219; Bifidobacterium longum ssp. longum; growth inhibited by ≥80%; read-out: MIC
[14] = tested on: diarrheagenic bacteria (12 strains); test: organism not typed
[15] = tested on: FHs 74 Int (ATCC CCL 241) intestinal normal cells; test: MTT cytotoxicity assay, FHs 74 Int; conditions: FHs 74 Int (intestinal normal cells), MTT, 72 h; for IC50 / IC80: FHs74Int; for IC50: read-out: IC50 ± SD; for IC80: read-out: IC80 ± SD (80% inhibitory concentration of proliferation)
[16] = tested on: Bifidobacterium breve (ATCC 15700); test: Broth microdilution MIC, B. breve; conditions: ATCC15700, growth inhibited by ≥80%, read-out: MIC
[17] = tested on: Lactobacillus rhamnosus (CCM 7091); test: Broth microdilution MIC, L. rhamnosus; conditions: Lacticaseibacillus rhamnosus, CCM7091
[18] = tested on: Bifidobacterium animalis spp. lactis (DSMZ 10140); test: Broth microdilution MIC, B. animalis spp. lactis; conditions: DSMZ10140
[19] = tested on: Enterococcus faecalis (ATCC 29212); test: Broth microdilution MIC, E. faecalis
[20] = tested on: Escherichia coli (ATCC 25922); test: Broth microdilution MIC, E. coli
[21] = tested on: Vibrio parahaemolyticus (ATCC 17802); test: Broth microdilution MIC, V. parahaemolyticus; conditions: ATCC17802, growth inhibited by ≥80%, read-out: MIC
[22] = tested on: Bacillus cereus (ATCC 14579); test: Broth microdilution MIC, B. cereus; conditions: median/mode, read-out: MIC
[23] = tested on: probiotic bacteria (9 strains); test: Broth microdilution MIC, probiotic bacteria as a group (mean or range over strains); conditions: read-out: x¯ -PB ± SD: mean MIC for probiotic bacteria
[24] = tested on: Bifidobacterium adolescentis (DSMZ 20087); test: Broth microdilution MIC, B. adolescentis
[25] = tested on: Lactobacillus casei (DSMZ 20011); test: Broth microdilution MIC, L. casei; conditions: Lacticaseibacillus casei, DSMZ20011, Lactobacillus casei, read-out: MIC
[26] = tested on: Salmonella enterica ssp. enterica serovar Enteritidis (ATCC 13076); test: Broth microdilution MIC, Salmonella Enteritidis
[27] = tested on: S. enterica ssp. enterica serovar Typhimurium (ATCC 14028); test: Broth microdilution MIC, Salmonella Typhimurium
[28] = Lactobacillus reuteri, growth inhibited by ≥80%, read-out: MIC
[29] = ATCC25285, growth inhibited by ≥80%, read-out: MIC
[30] = ATCC9610, growth inhibited by ≥80%
[31] = ATCC7644, growth inhibited by ≥80%, read-out: MIC
[32] = ATCC29521, growth inhibited by ≥80%, read-out: MIC
[33] = mean of 12 strains, >512 replaced with 1024, read-out: x¯ -DB ± SD: mean MIC for diarrheagenic bacteria
[34] = Lactobacillus rhamnosus, growth inhibited by ≥80%, read-out: MIC
[35] = Bifidobacterium animalis spp. lactis, growth inhibited by ≥80%, read-out: MIC
[36] = ATCC29212, growth inhibited by ≥80%, read-out: MIC
[37] = ATCC25922, growth inhibited by ≥80%, read-out: MIC
[38] = mean of 9 strains, >512 replaced with 1024
[39] = DSMZ20087, growth inhibited by ≥80%, read-out: MIC

SMILES | IC50 [1] | IC80 [1] | IC50 [2] | IC80 [2] | MIC [3, 28] | MIC [4] | MIC [5, 29] | MIC [6, 30] | IC50 [7] | IC80 [7] | MIC [8] | MIC [9, 31] | MIC [11] | MIC [12, 32] | MIC [13] | MIC [14, 33] | IC50 [15] | IC80 [15] | MIC [16] | MIC [21] | also measured
Cc1ncc([N+](=O)[O-])n1CCO [MA, metronidazole] | > 512 µg/mL | > 512 µg/mL | > 512 µg/mL | > 512 µg/mL | 256 µg/mL (≈ 1500 µM) | 8 µg/mL (≈ 46.7 µM) | 0.5 µg/mL (≈ 2.92 µM) | > 512 µg/mL | > 512 µg/mL | > 512 µg/mL | > 512 µg/mL | 512 µg/mL (≈ 2990 µM) | > 512 µg/mL | > 512 µg/mL | 8 µg/mL (≈ 46.7 µM) | 651 ± 459 µg/mL (≈ 3810 µM) | > 512 µg/mL | > 512 µg/mL | 32 µg/mL (≈ 187 µM) | > 512 µg/mL | MIC ([10]; Clostridium difficile, […], read-out: MIC): 0.5 µg/mL (≈ 2.92 µM); MIC ([14]; both clostridial species tested, read-out: MICs): 0.5 to 8 µg/mL (≈ 2.92 to 46.7 µM); IC50 ± SD [15]: - (Not active (MIC/IC50/80 > 512 μg/mL, the value 1024 μg/mL was used for average calculation)); IC80 ± SD (80% inhibitory concentration of proliferation) [15]: - (Not active (MIC/IC50/80 > 512 μg/mL, the value 1024 μg/mL was used for average calculation)); MIC [17, 34]: > 512 µg/mL; MIC [18, 35]: 32 µg/mL (≈ 187 µM); MIC [19, 36]: > 512 µg/mL; MIC [20, 37]: 0.062 µg/mL (≈ 0.362 µM); MIC ([22]; ATCC14579, […]): 128 µg/mL (≈ 748 µM); MIC [23, 38]: 385 ± 458 µg/mL (≈ 2250 µM); MIC [24, 39]: 64 µg/mL (≈ 374 µM); MIC ([25]; growth inhibited by ≥80%): > 512 µg/mL
O=C(OC[C@H]1O[C@@H](OC(=O)c2cc(O)c(O)c(OC(=O)c3cc(O)c(O)c(O)c3)c2)[C@H](OC(=O)c2cc(O)c(O)c(OC(=O)c3cc(O)c(O)c(O)c3)c2)[C@@H](OC(=O)c2cc(O)c(O)c(OC(=O)c3cc(O)c(O)c(O)c3)c2)[C@@H]1OC(=O)c1cc(O)c(O)c(OC(=O)c2cc(O)c(O)c(O)c2)c1)c1cc(O)c(O)c(OC(=O)c2cc(O)c(O)c(O)c2)c1 [TA, tannic acid] | – | – | – | – | – | 512 µg/mL (≈ 301 µM) | – | – | – | – | > 512 µg/mL | – | 512 µg/mL (≈ 301 µM) | – | 128 µg/mL (≈ 75.2 µM) | 779 ± 307 µg/mL (≈ 458 µM) | – | – | 256 µg/mL (≈ 150 µM) | 128 µg/mL (≈ 75.2 µM) | MIC [3]: 512 µg/mL (≈ 301 µM); MIC ([5]; ATCC25285): > 512 µg/mL; MIC ([6]; ATCC9610, […]): 512 µg/mL (≈ 301 µM); MIC ([9]; ATCC7644): > 512 µg/mL; MIC [10]: > 512 µg/mL; MIC ([12]; ATCC29521): > 512 µg/mL; MIC [17]: > 512 µg/mL; MIC ([18]; Bifidobacterium animalis): > 512 µg/mL; MIC ([19]; ATCC29212): > 512 µg/mL; MIC [26]: > 512 µg/mL; MIC ([20]; ATCC25922): > 512 µg/mL; MIC ([22]; ATCC14579, […]): 512 µg/mL (≈ 301 µM); MIC [23]: 725 ± 352 µg/mL (≈ 426 µM); MIC ([24]; DSMZ20087): > 512 µg/mL; MIC [27]: > 512 µg/mL; MIC ([25]; […]): 512 µg/mL (≈ 301 µM)
CN(C)[C@@H]1C(O)=C(C(N)=O)C(=O)[C@@]2(O)C(O)=C3C(=O)c4c(O)cccc4[C@@](C)(O)[C@H]3C[C@@H]12 [TC, tetracycline] | 232 ± 161 µg/mL (≈ 521 µM) | > 512 µg/mL | 70.4 ± 15 µg/mL (≈ 158 µM) | > 512 µg/mL | 32 µg/mL (≈ 72 µM) | 32 µg/mL (≈ 72 µM) | 0.5 µg/mL (≈ 1.13 µM) | 2 µg/mL (≈ 4.5 µM) | 393 ± 20 µg/mL (≈ 884 µM) | > 512 µg/mL | 2 µg/mL (≈ 4.5 µM) | 2 µg/mL (≈ 4.5 µM) | 4 µg/mL (≈ 9 µM) | 16 µg/mL (≈ 36 µM) | 2 µg/mL (≈ 4.5 µM) | – | 14.7 ± 2.3 µg/mL (≈ 33.1 µM) | 108 ± 5 µg/mL (≈ 243 µM) | 16 µg/mL (≈ 36 µM) | 1 µg/mL (≈ 2.25 µM) | MIC ([14]; read-out: MICs): 1 to 4 µg/mL (≈ 2.25 to 9 µM); MIC ([14]; read-out: x¯ -DB ± SD: mean MIC for diarrheagenic bacteria): 4.8 ± 8 µg/mL (≈ 10.8 µM); MIC [17, 34]: 8 µg/mL (≈ 18 µM); MIC [18, 35]: 32 µg/mL (≈ 72 µM); MIC [19, 36]: 4 µg/mL (≈ 9 µM); MIC ([26]; Salmonella Enteritidis, growth inhibited by ≥80%, read-out: MIC): 4 µg/mL (≈ 9 µM); MIC [20, 37]: 1 µg/mL (≈ 2.25 µM); MIC ([22]; ATCC14579, growth inhibited by ≥80%): 0.5 µg/mL (≈ 1.13 µM); MIC [23, 38]: 19.8 ± 19 µg/mL (≈ 44.6 µM); MIC [24, 39]: 64 µg/mL (≈ 144 µM); MIC ([27]; Salmonella Typhimurium, growth inhibited by ≥80%, read-out: MIC): 4 µg/mL (≈ 9 µM); MIC ([25]; growth inhibited by ≥80%): 8 µg/mL (≈ 18 µM)

Source: paper PMC7558399, “In Vitro Selective Growth-Inhibitory Activities of Phytochemicals, Synthetic Phytochemical Analogs, and Antibiotics against Diarrheagenic/Probiotic Bacteria and Cancer/Normal Intestinal Cells” (Pharmaceuticals, 2020)
